Data from PubChem BioAssay (NCI).
Where “and” joins values, the source holds several entries; their conditions need not be identical. Equal values may be shown once.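 Test compounds were applied to cells in 96-well plates for 48 hours at 5 doses. GI50 is the concentration that inhibits growth by half. TGI is the concentration that stops growth completely.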

What was measured:
Assay in all cases: NCI anticancer screen, dose series, 48 h
A549 NSCLC = test system: A549 NSCLC
SW-620 colon = test system: SW-620 colon
ACHN renal = test system: ACHN renal
NCI-H522 lung = test system: NCI-H522 lung
SK-MEL-28 melanoma = test system: SK-MEL-28 melanoma
LOX IMVI melanoma = test system: LOX IMVI melanoma
OVCAR-5 ovarian = test system: OVCAR-5 ovarian
HL-60(TB) leukemia = test system: HL-60(TB) leukemia
RPMI-8226 leukemia = test system: RPMI-8226 leukemia
K-562 leukemia = test system: K-562 leukemia

Compound	TGI (A549 NSCLC)	TGI (SW-620 colon)	TGI (ACHN renal)	TGI (NCI-H522 lung)	TGI (SK-MEL-28 melanoma)	TGI (LOX IMVI melanoma)	TGI (OVCAR-5 ovarian)	TGI (HL-60(TB) leukemia)	TGI (RPMI-8226 leukemia)	TGI (K-562 leukemia)	GI50 (A549 NSCLC)	GI50 (K-562 leukemia)	GI50 (SW-620 colon)	GI50 (ACHN renal)	GI50 (NCI-H522 lung)	GI50 (SK-MEL-28 melanoma)	GI50 (LOX IMVI melanoma)	GI50 (OVCAR-5 ovarian)	GI50 (HL-60(TB) leukemia)	GI50 (RPMI-8226 leukemia)
COCCOCOC(C)(C)[C@H](CCO)O[Si](c1ccccc1)(c1ccccc1)C(C)(C)C	22.1 µM	25.2 µM	18.9 µM	15.4 µM	29.7 µM	23.3 µM	27.5 µM	9.05 µM	35.5 µM											
Oc1cccnc1/C=N/OCc1ccccc1	> 100 µM	> 100 µM	> 100 µM	> 100 µM		> 100 µM	> 100 µM	> 100 µM	> 100 µM	> 100 µM										
O=C1C=C(C2=C(C3=CC(=O)c4ccccc4C3=O)C(=O)c3ccccc3C2=O)C(=O)c2ccccc21	27 µM	20.5 µM	37.9 µM	7.17 µM	29.8 µM	14.6 µM	25.6 µM	3.68 µM	12.2 µM	> 39.5 µM										
CNC(=O)CCCNC(=O)CCCC(=O)OC	> 100 µM	> 100 µM	> 100 µM	> 100 µM	> 100 µM	> 100 µM	> 100 µM	> 100 µM	> 100 µM	> 100 µM										
CNC(=O)N1N[C@H](c2ccccc2)[C@@H]1c1ccccc1	> 100 µM	77.7 µM	> 100 µM		40.7 µM	44.3 µM	> 100 µM	> 100 µM		54.5 µM										
O=C(O)C12CC3CC(CC(F)(C3)C1)C2	> 100 µM	> 100 µM	> 100 µM	> 100 µM	> 100 µM	> 100 µM	> 100 µM	> 100 µM	> 100 µM	> 100 µM										
O=c1[nH]c2nc[nH]c2c(=O)n1C1CCCCC1	> 100 µM	> 100 µM	> 100 µM	> 100 µM	> 100 µM		> 100 µM	> 100 µM	> 100 µM	> 100 µM										
Cc1nc(N(C(C)C)C(C)C)c(C(C)C)o1	> 100 µM	> 100 µM	> 100 µM	> 100 µM	> 100 µM	> 100 µM	> 100 µM	> 100 µM		> 100 µM										
O=c1ccc2ccccc2c2ccccc12	31.8 µM	10.9 µM	12.4 µM	11.2 µM	16.8 µM	3.99 µM	6.7 µM	9.97 µM	7.83 µM	33.1 µM										
O=C(O)CCCc1ccccc1	> 1000 µM	> 1000 µM	> 1000 µM	634 µM and > 1000 µM	> 1000 µM	898 µM and > 1000 µM	> 1000 µM	> 1000 µM	79.2 µM	338 µM and > 1000 µM	322 µM and > 1000 µM	> 1000 µM	333 µM and > 1000 µM	436 µM and > 1000 µM	> 1000 µM	325 µM and > 1000 µM	224 µM and > 1000 µM	456 µM and > 1000 µM	> 1000 µM	19.5 µM
O=C1CSC(c2ccccc2O)N1c1ccc(Oc2ccc(Cl)cc2)c(Cl)c1 (stereo unspecified)	49.3 µM	> 100 µM	94 µM	36.8 µM	57.4 µM	32.8 µM	81.8 µM	51.2 µM	89.1 µM	> 100 µM										
COc1ccc(C(=O)Oc2c(C#N)sc3c2c(=O)n(-c2ccccc2)c(=S)n3-c2ccccc2)cc1	> 100 µM	> 100 µM	> 100 µM	4.11 µM	> 100 µM	46.2 µM	68.5 µM	49.7 µM	47.1 µM	> 100 µM										
OC1COC(OCc2ccccc2)C(O)C1O (stereo unspecified)	> 100 µM	> 100 µM	> 100 µM	> 100 µM	> 100 µM	> 100 µM	> 100 µM	> 100 µM	> 100 µM	> 100 µM										
c1ccc(COC2C3COC(O3)C(OCc3ccccc3)C2OCc2ccccc2)cc1 (stereo unspecified)		> 100 µM	> 100 µM	62.6 µM		> 100 µM	> 100 µM	30.9 µM	> 100 µM	> 100 µM										
CCCCCCCCCCCCC(O)C(=O)O (stereo unspecified)	> 100 µM	> 100 µM	> 100 µM	> 100 µM		> 100 µM	> 100 µM	> 100 µM	> 100 µM	> 100 µM										
C/C(N)=N/OCc1nc(C)no1	> 100 µM	> 100 µM	> 100 µM	> 100 µM	> 100 µM			> 100 µM	> 100 µM	> 100 µM										
O=C(Nc1ccc2[nH]c(C(=O)N3CC(CCl)c4ccc([N+](=O)[O-])cc43)cc2c1)c1cc2ccccc2o1 (stereo unspecified)	> 1100 µM	> 1100 µM		> 1100 µM	> 1100 µM	> 1100 µM	> 1100 µM	> 1100 µM	> 1100 µM											
CSc1c(C#N)c(S)n(-c2ccc(Cl)cc2)c(=O)c1C#N	> 100 µM	> 100 µM		> 100 µM	> 100 µM	> 100 µM	> 100 µM	> 100 µM	> 100 µM	> 100 µM										
c1cncc(CSc2ncnc3nc[nH]c23)c1	> 100 µM	> 100 µM	> 100 µM	> 100 µM	> 100 µM	> 100 µM	> 100 µM	> 100 µM		> 100 µM										
NC(=O)c1sc2nc3ccccc3n2c1N	> 100 µM	> 100 µM	> 100 µM		> 100 µM	> 100 µM	> 100 µM	> 100 µM	> 100 µM											
CC1SC(c2ccc(Cl)cc2)N(CCc2cccs2)C1=O (stereo unspecified)	7.41 µM	3.22 µM	4.89 µM	2.75 µM	2.99 µM	2.49 µM	4.56 µM	8.73 µM	4.55 µM		2.07 µM		1.54 µM	1.88 µM	1.34 µM	1.58 µM	1.23 µM	1.85 µM	2.58 µM	1.33 µM
